Reference: patent US9725468B2, “C5-spiro iminothiazine dioxides as BACE inhibitors, compositions, and their use” (Merck Sharp & Dohme Corp., priority 2013, dated 2017)

Tests used:
[1] = target: soluble human BACE1 catalytic domain (Homo sapiens, UniProt P56817); experiment: BACE1 HTRF FRET Assay; format: biochemical; details: Ki calculated from IC50 using the Cheng-Prusoff equation; QSY7-APPswe-Eu substrate 200 nM, pH 5.0
Source text: Na^+-Acetate pH 5.0; 1% Brij-35; Glycerol; Dimethyl Sulfoxide (DMSO); Recombinant human soluble BACE1 catalytic domain (>95% pure); APP Swedish mutant peptide substrate (QSY7-APP^swe-Eu): QSY7-EISEVNLDAEFC-Europium-amide.
A homogeneous time-resolved FRET assay can be used to determine IC50 values for inhibitors of the soluble human BACE1 catalytic domain. This assay monitors the increase of 620 nm fluorescence that resulted from BACE1 cleavage of an APPswedish APP^swe mutant peptide FRET substrate (QSY7-EISEVNLDAEFC-Europium-amide). This substrate contains an N-terminal QSY7 moiety that serves as a quencher of the C-terminal Europium fluorophore (620 nm Em). In the absence of enzyme activity, 620 nm fluorescence is low in the assay and increased linearly over 3 hours in the presence of uninhibited BACE1 enzyme. Inhibition of BACE1 cleavage of the QSY7-APP^swe-Eu substrate by inhibitors is manifested as a suppression of 620 nm fluorescence.
Varying concentrations of inhibitors at 3× the final desired concentration in a volume of 10 ul are preincubated with purified human BACE1 catalytic domain (3 nM in 10 μl) for 30 minutes at 30° C. in reaction buffer containing 20 mM Na-Acetate pH 5.0, 10% glycerol, 0.1% Brij-35 and 7.5% DSMO. Reactions are initiated by addition of 10 μl of 600 nM QSY7-APP^swe-Eu substrate (200 nM final) to give a final reaction volume of 30 μl in a 384 well Nunc HTRF plate. The reactions are incubated at 30° C. for 1.5 hours. The 620 nm fluorescence is then read on a Rubystar HTRF plate reader (BMG Labtechnologies) using a 50 millisecond delay followed by a 400 millisecond acquisition time window. Inhibitor IC50 values are derived from non-linear regression analysis of concentration response curves. Ki values are then calculated from IC50 values using the Cheng-Prusoff equation using a previously determined […] for the QSY7-APP^swe-Eu substrate at BACE1.

[2] = target: T1, purified human autoBACE-2 (Homo sapiens, UniProt Q9Y5Z0); experiment: BACE-2 Assay (BACE-HTRF assay); format: biochemical; details: Ki calculated from IC50 using the Cheng-Prusoff equation; QSY7-EISEVNLDAEFC-Eu-amide substrate 200 nM, pH 5.0; read-out: BACE2 Ki
T1 sequence (Q9Y5Z0 63-473 limits assumed): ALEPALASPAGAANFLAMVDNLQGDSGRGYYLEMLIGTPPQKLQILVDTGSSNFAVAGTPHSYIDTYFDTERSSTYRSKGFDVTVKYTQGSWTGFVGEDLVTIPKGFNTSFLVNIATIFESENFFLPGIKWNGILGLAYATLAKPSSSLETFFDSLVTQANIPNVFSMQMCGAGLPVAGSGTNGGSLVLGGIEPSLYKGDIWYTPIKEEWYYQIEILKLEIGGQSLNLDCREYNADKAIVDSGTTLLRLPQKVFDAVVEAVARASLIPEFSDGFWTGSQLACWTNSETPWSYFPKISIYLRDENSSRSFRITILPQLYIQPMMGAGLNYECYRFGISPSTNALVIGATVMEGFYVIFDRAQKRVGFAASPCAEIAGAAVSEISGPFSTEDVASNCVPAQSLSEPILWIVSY
Protocol: Inhibitor ICsos at purified human autoBACE-2 are determined in a time-resolved endpoint proteolysis assay that measures hydrolysis of the QSY7-EISEVNLDAEFC-Eu-amide FRET peptide substrate (BACE-HTRF assay). BACE-mediated hydrolysis of this peptide results in an increase in relative fluorescence (RFU) at 620 nm after excitation with 320 nm light. Inhibitor compounds, prepared at 3× the desired final concentration in 1×BACE assay buffer (20 mM sodium acetate pH 5.0, 10% glycerol, 0.1% Brij-35) supplemented with 7.5% DMSO are preincubated with an equal volume of autoBACE-2 enzyme diluted in 1×BACE assay buffer (final enzyme concentration 1 nM) in black 384-well NUNC plates for 30 minutes at 30° C. The assay is initiated by addition of an equal volume of the QSY7-EISEVNLDAEFC-Eu-amide substrate (200 nM final concentration, […]) prepared in 1×BACE assay buffer supplemented with 7.5% DMSO and incubated for 90 minutes at 30° C. DMSO is present at 5% final concentration in the assay. Following laser excitation of sample wells at 320 nm, the fluorescence signal at 620 nm is collected for 400 ms following a 50 μs delay on a RUBYstar HTRF plate reader (BMG Labtechnologies). Raw RFU data is normalized to maximum (1.0 nM BACE/DMSO) and minimum (no enzyme/DMSO) RFU values. IC50s are determined by nonlinear regression analysis (sigmoidal dose response, variable slope) of percent inhibition data with minimum and maximum values set to 0 and 100 percent respectively. Similar IC50s are obtained when using raw RFU data. The Ki values are calculated from the IC50 using the Cheng-Prusoff equation.

Sequence of soluble human BACE1 catalytic domain (P56817 75-416 limits assumed): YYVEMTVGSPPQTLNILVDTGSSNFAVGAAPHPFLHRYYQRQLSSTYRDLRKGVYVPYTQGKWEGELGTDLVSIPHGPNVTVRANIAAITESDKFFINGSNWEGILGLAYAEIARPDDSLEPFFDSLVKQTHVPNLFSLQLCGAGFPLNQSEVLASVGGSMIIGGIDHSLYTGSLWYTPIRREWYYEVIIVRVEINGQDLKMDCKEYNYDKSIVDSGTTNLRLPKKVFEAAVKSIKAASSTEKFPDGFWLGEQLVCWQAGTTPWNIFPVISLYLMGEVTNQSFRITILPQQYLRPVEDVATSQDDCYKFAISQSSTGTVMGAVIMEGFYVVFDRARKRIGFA

SMILES | Ki [1] [nM] | Ki [2] [nM]
CC1(C)C(=N)N[C@@]2(COCc3ccc(NC(=O)c4ccc(F)cn4)cc32)CS1(=O)=O [Example E-13] | 127 | 17
CC1(C)C(=N)N[C@@]2(COCc3ccc(NC(=O)c4ccc(C#N)cn4)cc32)CS1(=O)=O [Example E-14] | 11 | 35
CC1(C)C(=N)N[C@@]2(COCc3ccc(NC(=O)c4ncc(Cl)cc4F)cc32)CS1(=O)=O [Example E-15] | 37 | 5
CC1(C)C(=N)N[C@@]2(COCc3ccc(NC(=O)c4cnc(OCC(F)(F)F)cn4)cc32)CS1(=O)=O [Example E-16] | 101 | 402
CC1(C)C(=N)N[C@@]2(COCc3ccc(NC(=O)c4cnc(OCCF)cn4)cc32)CS1(=O)=O [Example E-17] | 326 | 443
CC1(C)C(=N)N[C@@]2(COCc3ccc(NC(=O)c4ccc(OC(F)F)cn4)cc32)CS1(=O)=O [Example E-18] | 34 | 76
C#CCOc1ccc(C(=O)Nc2ccc3c(c2)[C@]2(COC3)CS(=O)(=O)C(C)(C)C(=N)N2)nc1 [Example E-19] | 30 | 185
COc1cnc(C(=O)Nc2ccc3c(c2)[C@]2(COC3)CS(=O)(=O)C(C)(C)C(=N)N2)c(C)n1 [Example E-20] | 218 | 60
CC1(C)C(=N)N[C@@]2(COCc3ccc(NC(=O)c4cnc(C(F)(F)F)cn4)cc32)CS1(=O)=O [Example E-21] | 231 | 583
COc1cnc(C(=O)Nc2ccc3c(c2)[C@]2(COC3)CS(=O)(=O)C(C)(C)C(=N)N2)cn1 [Example E-22] | 334 | 187
Cc1nc(C(=O)Nc2ccc3c(c2)[C@]2(COC3)CS(=O)(=O)C(C)(C)C(=N)N2)co1 [Example E-23] | 66 | 7
CC1(C)C(=N)N[C@@]2(COCc3ccc(NC(=O)c4ccc(OCF)cn4)cc32)CS1(=O)=O [Example E-24] | 57 | 13

Further lines, results first:

Ki [1] [nM] | Ki [2] [nM] | SMILES
11 | 3 | CC1(C)C(=N)N[C@@]2(CCCc3ccc(NC(=O)c4ccc(Cl)cn4)cc32)CS1(=O)=O [Example F-1]
11 | 2 | CC1(C)C(=N)N[C@@]2(CCCc3ccc(NC(=O)c4ncc(Cl)cc4F)cc32)CS1(=O)=O [Example G-1]
35 | 7 | CC1(C)C(=N)N[C@@]2(CCCc3ccc(NC(=O)c4cnsn4)cc32)CS1(=O)=O [Example G-2]
503 | 74 | CC1(C)C(=N)N[C@@]2(CCCc3ccc(NC(=O)c4cc5ccccn5n4)cc32)CS1(=O)=O [Example G-3]
4 | 1 | CC1(C)C(=N)N[C@@]2(CCCc3ccc(NC(=O)c4ccn(C(F)F)n4)cc32)CS1(=O)=O [Example G-4]
7 | 20 | C#CCOc1cnc(C(=O)Nc2ccc3c(c2)[C@]2(CCC3)CS(=O)(=O)C(C)(C)C(=N)N2)cn1 [Example G-5]
17 | 1 | Cn1cc(Cl)c(C(=O)Nc2ccc3c(c2)[C@]2(CCC3)CS(=O)(=O)C(C)(C)C(=N)N2)n1 [Example G-6]
10 | 51 | C#CCOc1ccc(C(=O)Nc2ccc3c(c2)[C@]2(CCC3)CS(=O)(=O)C(C)(C)C(=N)N2)nc1 [Example G-7]
19 | 2 | COc1cnc(C(=O)Nc2ccc3c(c2)[C@]2(CCC3)CS(=O)(=O)C(C)(C)C(=N)N2)c(C)c1 [Example G-8]
64 | 17 | COc1cnc(C(=O)Nc2ccc3c(c2)[C@]2(CCC3)CS(=O)(=O)C(C)(C)C(=N)N2)c(C)n1 [Example G-9]
2 | 3 | Cc1cc(C#N)cnc1C(=O)Nc1ccc2c(c1)[C@]1(CCC2)CS(=O)(=O)C(C)(C)C(=N)N1 [Example G-10]
92 | 57 | COc1cnc(C(=O)Nc2ccc3c(c2)[C@]2(CCC3)CS(=O)(=O)C(C)(C)C(=N)N2)cn1 [Example G-11]
